Consider four compounds from ChEMBL document CHEMBL1201862, “PubChem BioAssay data set” (2004).

Values joined by “and” are separate entries in the source; they are usually repeats but may differ in a detail not shown here. Equal entries are not always repeated. Active and inactive are the calls of the source.

For assay [1], the target named is T1, Apoptotic protease-activating factor 1 (Homo sapiens, UniProt O14727).
T1 sequence (O14727 whole entry): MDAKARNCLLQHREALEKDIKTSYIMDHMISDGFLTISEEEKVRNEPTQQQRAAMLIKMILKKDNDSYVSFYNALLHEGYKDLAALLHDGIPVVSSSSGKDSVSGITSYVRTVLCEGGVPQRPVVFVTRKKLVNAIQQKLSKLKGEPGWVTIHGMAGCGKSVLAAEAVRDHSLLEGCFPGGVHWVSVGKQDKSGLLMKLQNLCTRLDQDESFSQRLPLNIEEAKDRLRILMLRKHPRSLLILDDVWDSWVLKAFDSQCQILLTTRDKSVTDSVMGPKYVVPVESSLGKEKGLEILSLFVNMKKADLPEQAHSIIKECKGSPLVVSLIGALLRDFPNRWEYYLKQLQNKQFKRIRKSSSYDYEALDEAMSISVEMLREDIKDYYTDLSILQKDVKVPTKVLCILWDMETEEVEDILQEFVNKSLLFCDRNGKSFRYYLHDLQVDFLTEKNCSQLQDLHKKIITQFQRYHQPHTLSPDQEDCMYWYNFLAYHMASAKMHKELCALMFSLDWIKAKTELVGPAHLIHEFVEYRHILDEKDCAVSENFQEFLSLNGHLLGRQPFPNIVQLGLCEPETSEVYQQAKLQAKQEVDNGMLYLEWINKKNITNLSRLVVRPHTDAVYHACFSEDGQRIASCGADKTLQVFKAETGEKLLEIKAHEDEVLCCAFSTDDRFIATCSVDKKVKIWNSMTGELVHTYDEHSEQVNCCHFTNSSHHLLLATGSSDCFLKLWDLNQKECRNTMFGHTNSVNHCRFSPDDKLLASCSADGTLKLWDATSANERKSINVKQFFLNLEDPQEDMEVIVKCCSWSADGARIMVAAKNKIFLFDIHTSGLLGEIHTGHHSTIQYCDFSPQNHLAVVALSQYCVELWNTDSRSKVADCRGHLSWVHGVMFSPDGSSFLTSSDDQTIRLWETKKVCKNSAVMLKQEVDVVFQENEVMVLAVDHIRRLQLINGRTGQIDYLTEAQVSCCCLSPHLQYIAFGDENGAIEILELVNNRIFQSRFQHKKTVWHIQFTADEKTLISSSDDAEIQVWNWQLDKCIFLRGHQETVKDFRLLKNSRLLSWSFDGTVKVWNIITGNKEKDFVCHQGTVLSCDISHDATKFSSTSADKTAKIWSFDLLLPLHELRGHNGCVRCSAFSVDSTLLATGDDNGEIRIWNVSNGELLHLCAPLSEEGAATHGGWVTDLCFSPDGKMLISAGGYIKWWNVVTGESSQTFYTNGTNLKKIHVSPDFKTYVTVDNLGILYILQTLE
It counts as functional.

In a further assay the target is T2, Protein RecA (Mycobacterium tuberculosis, UniProt P9WHJ3).
T2 sequence (P9WHJ3 whole entry): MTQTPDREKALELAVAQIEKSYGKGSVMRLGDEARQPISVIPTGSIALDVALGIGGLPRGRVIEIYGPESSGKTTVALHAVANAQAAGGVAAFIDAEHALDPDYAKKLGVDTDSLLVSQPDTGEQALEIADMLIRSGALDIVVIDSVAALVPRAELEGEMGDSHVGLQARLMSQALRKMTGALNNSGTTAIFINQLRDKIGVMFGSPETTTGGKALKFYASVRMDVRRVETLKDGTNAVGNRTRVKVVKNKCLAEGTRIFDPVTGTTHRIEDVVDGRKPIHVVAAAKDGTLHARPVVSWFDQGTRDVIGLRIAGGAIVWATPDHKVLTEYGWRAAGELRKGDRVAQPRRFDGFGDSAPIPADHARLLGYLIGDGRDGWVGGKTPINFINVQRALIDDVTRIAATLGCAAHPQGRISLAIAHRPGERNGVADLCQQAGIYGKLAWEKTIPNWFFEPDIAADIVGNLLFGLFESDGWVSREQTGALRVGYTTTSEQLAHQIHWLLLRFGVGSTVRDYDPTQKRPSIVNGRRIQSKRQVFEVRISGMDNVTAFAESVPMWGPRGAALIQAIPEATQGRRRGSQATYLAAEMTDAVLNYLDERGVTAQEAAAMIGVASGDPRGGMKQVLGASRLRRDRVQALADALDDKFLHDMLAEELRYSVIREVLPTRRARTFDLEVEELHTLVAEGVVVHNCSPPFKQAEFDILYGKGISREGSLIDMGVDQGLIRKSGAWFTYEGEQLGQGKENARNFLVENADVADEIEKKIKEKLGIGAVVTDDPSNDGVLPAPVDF
As to the kind of experiment: Fluorescence Cell-Free Homogeneous Dose Retest to Identify Inhibitors of RecA-Intein Splicing Activity. [Related pubchem assays (depositor defined):AID2097, AID2223, AID489010, AID492950]. It counts as functional.

For assay [2], the target named is Serine/threonine-protein phosphatase PP1-alpha catalytic subunit (Homo sapiens, UniProt P62136). As to the kind of experiment: inhibition of protein phosphatase 1 activity – biochemical, fluorescence, dose response (AID 2394).
Serine/threonine-protein phosphatase PP1-alpha catalytic subunit, sequence (P62136 whole entry): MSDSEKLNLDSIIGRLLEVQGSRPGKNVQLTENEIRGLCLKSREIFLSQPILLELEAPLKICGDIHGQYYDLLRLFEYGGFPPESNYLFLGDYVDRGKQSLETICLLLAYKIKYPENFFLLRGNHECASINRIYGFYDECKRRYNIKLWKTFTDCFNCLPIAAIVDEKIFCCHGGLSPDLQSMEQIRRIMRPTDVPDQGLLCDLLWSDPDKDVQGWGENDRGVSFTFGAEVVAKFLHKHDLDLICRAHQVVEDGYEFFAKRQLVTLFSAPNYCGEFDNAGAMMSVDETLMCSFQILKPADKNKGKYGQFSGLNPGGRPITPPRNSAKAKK
The target of assay [3] is T3, Replicative DNA helicase DnaB (Mycobacterium tuberculosis, UniProt P9WMR3).
T3 sequence (P9WMR3 whole entry): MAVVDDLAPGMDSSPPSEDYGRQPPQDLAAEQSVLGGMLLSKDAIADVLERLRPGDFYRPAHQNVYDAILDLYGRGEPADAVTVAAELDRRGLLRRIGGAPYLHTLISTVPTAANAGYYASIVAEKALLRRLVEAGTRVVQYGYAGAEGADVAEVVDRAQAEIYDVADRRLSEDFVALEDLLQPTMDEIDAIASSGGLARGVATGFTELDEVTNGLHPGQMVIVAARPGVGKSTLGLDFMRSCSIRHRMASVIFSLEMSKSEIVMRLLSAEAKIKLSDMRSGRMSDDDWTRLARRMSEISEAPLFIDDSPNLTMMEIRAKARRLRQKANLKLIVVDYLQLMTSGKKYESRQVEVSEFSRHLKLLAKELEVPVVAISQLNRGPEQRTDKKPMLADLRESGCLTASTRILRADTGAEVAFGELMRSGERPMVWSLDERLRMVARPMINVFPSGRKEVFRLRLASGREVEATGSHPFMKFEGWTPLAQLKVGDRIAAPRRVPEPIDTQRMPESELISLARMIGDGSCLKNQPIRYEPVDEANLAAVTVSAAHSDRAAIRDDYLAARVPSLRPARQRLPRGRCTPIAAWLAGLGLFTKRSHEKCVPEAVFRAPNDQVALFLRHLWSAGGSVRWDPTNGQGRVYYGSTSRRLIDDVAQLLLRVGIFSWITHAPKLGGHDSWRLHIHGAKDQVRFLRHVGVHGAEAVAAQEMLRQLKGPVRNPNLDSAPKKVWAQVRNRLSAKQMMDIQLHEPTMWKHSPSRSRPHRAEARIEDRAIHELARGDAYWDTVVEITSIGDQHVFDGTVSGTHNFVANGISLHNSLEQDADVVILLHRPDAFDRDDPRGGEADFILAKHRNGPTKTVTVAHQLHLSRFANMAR
As to the kind of experiment: DnaB intein splicing inhibitors, dose response, biochemical, cell-free fluorescence (AID 449749). It counts as functional.

Another assay concerns the target Nonstructural protein 1 (Influenza A virus, UniProt Q194T2). The class given is functional, Influenza A virus (A/California/07/2009(H1N1)).
The target of assay [4] is Serine/threonine-protein phosphatase (Homo sapiens, UniProt Q9BPW0). As to the kind of experiment: inhibition of protein phosphatase 5 activity – biochemical, fluorescence, dose response (AID 2395).
Serine/threonine-protein phosphatase, sequence (Q9BPW0 whole entry): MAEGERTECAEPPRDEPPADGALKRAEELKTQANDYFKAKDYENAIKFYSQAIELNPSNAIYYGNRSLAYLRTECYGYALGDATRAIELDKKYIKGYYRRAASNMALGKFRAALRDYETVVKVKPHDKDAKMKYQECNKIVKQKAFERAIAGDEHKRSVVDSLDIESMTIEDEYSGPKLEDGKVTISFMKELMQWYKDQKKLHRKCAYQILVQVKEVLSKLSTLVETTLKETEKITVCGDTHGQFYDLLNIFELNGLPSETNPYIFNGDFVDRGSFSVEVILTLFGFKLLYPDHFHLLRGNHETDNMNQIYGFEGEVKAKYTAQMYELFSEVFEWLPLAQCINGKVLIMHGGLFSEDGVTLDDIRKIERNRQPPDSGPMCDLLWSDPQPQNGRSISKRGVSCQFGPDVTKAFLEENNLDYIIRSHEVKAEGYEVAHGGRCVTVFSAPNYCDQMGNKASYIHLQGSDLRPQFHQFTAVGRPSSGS
A short description of assay [5]: viability of uninfected HEp-2 cells – cell-based, HTS, cytotoxicity control for RSV inhibitor project, dose response (AID 2410). The class given is functional. Particulars: human respiratory syncytial virus.
Assay [6] is described as follows: Luminescent dose response cell-based high throughput screening assay for inhibitors of the Janus kinase 2 mutant JAK2V617F. [Related pubchem assays: 1446 (Primary screen.), 1521 (Confirmation assay.), 1486 (Counter screen.)]. The class given is functional. (A counterscreen serves to expose hits that act by an unwanted route or on another target.)
Assay [7] in a line: microbe, parasite or virus in culture. The class given is functional. Particulars: Mycobacterium tuberculosis.
Assay [8] in a line: Reduced DLD-1 viability, concentration-response, CellTiter-Glo luminescence (AID 1117352). The class given is functional. (In general: In ATP-based viability assays light output follows the ATP content of the culture.)
Assay [9] is described as follows: RKO cell viability reduction, dose response, CellTiter-Glo luminescence (AID 1117322). The class given is functional.
The nature of assay [10]: HGIII-sPLA2 enzyme inhibition potency – biochemical, QFRET, IC50, dose response (AID 743457).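 Note: green fluorescence rise as the enzyme cleaves BODIPY PC-A2 in liposomes.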
Assay [11] can be described thus: SNU-C1 cell viability reduction, dose response, CellTiter-Glo luminescence (AID 1117323). It counts as functional, cell-based.
A short description of assay [12]: cytotoxicity toward HCT116 cells – cell-based, CellTiter-Glo luminescence, IC50, dose response (AID 1117332). It counts as functional. Particulars: HCT-116.
Assay [13] in a line: glucagon-like peptide-1 release potency in STC-1, concentration-response, half-maximal inhibitory concentration in the STC-1 line (AID 1117345). The class given is functional, cell-based.
Assay [14] in a line: Potency on glucagon-like peptide 1 release, dose-response in NCI-H716 cell line, half maximal inhibitory concentration (AID 1117344). The class given is functional, cell-based.
Assay [15] addresses T4, Fibrinogen beta chain (Homo sapiens, UniProt P02675).
T4 sequence (P02675 whole entry): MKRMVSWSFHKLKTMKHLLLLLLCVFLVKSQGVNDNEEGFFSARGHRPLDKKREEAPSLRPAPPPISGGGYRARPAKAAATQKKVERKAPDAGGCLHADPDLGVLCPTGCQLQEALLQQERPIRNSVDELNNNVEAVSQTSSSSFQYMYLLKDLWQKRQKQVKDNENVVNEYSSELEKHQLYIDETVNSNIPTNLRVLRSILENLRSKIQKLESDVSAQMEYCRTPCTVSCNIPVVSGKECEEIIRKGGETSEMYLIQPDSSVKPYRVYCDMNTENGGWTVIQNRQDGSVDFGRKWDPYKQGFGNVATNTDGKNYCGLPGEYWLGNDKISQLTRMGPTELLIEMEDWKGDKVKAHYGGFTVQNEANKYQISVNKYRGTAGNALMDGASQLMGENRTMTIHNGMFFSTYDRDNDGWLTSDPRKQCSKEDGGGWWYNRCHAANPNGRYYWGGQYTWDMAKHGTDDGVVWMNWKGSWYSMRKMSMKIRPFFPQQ
As to the kind of experiment: Fluorescence polarization-based biochemical high throughput dose response assay to identify inhibitors that disrupt the binding of a cyclic peptide (Tn7) to the fibrin proteolytic product D-Dimer and fragment E complex [DD(E )]. On the technique in general: In fluorescence polarisation assays a small probe gives low polarisation when free and higher when bound to something large.

The target in assay [16] is T4, Fibrinogen beta chain. As to the kind of experiment: Fluorescence polarization-based biochemical high throughput dose response assay to identify inhibitors that disrupt the binding of a cyclic peptide (Tn6) to the fibrin proteolytic product D-Dimer and fragment E complex [DD(E )].
Assay [17] is described as follows: cytotoxicity toward Colo320 cells – cell-based, CellTiter-Glo luminescence, IC50, dose response (AID 1117334). It counts as functional. Particulars: COLO 320.
For a further assay, the target named is Cytochrome P450 2D6 (Homo sapiens, UniProt P10635).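 Note: CYP2D6 member of a cytochrome P450 panel assay.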
Cytochrome P450 2D6, sequence (P10635 whole entry): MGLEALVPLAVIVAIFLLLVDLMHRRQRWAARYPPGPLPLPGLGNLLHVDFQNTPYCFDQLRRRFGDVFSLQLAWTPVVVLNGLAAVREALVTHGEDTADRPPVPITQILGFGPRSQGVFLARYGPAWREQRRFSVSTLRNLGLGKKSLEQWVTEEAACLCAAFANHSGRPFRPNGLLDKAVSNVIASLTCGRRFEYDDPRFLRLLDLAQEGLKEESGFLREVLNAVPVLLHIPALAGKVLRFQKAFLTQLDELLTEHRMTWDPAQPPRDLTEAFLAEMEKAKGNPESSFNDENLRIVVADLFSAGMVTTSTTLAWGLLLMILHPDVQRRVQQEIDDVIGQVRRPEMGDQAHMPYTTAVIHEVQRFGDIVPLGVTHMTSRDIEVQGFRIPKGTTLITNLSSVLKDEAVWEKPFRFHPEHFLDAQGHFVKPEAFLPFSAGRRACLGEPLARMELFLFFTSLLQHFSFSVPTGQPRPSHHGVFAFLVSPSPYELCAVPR
The nature of assay [18]: CellTiter-Glo luminescence survival assay, SW480 colon tumor line, concentration-response curve, half-maximal inhibitory concentration (AID 1117338). The class given is functional.
Assay [19] can be described thus: Luminescence Cell-Based Dose Confirmation HTS to Identify Activators of 5'UTR Stem-Loop Driven Alpha-Synuclein mRNA Translation in H4 Neuroglioblastoma Cells. [Related pubchem assays: 1829 (Project Summary), 1814 (Primary HTS)]. The class given is functional.
For the next assay, the system named is H4. As to the kind of experiment: Luminescence Cell-Based Dose Response HTS to Identify Activators of 5'UTR Stem-Loop Driven Prion Protein mRNA Translation in H4 Neuroglioblastoma Cells. [Related pubchem assays: 1829 (Project Summary), 1814 (Primary HTS)]. The class given is functional. The following applies: Homo sapiens.
Assay [20] is described as follows: Luminescence Cell-Based Dose Response HTS to Identify Activators of Luciferase Translation or Activity in H4 […] Cells. [Related pubchem assays: 1829 (Project Summary), 1814 (Primary HTS)]. The class given is functional.

Nonstructural protein 1, sequence (Q194T2 whole entry): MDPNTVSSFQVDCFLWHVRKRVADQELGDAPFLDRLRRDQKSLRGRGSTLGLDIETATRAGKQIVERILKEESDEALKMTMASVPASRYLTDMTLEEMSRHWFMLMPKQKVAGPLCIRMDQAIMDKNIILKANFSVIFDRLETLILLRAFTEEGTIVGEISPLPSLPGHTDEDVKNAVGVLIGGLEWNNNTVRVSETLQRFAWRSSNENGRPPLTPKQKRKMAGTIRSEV

`Cc1ccc(NC2=C(N3CCOCC3)C(=O)c3ccccc3C2=O)cc1`: the half-maximal inhibitory concentration (IC50) (commonly the concentration at which inhibition is half-maximal) in assay [1] is 19.4 µM (active); in assay [2], > 67 µM (not active); at Nonstructural protein 1 it was 7.74 µM (active); in assay [4], 20.9 µM (not active). For the same compound, the concentration giving a half-maximal response (EC50) – broadly, the concentration giving half of the maximal effect – on Protein RecA is 15.7 µM (active). In addition, the concentration at half-maximal activity (AC50) (usually the concentration giving half of the maximal activity seen) in assay [3] was 10.7 µM (active).

Take `O=C(CCl)NCc1cc(-c2ccc(Cl)cc2)no1`: the results for the CC50 in [5] and in [7] were 4.01 µM (active) and 9.8 µM (active), respectively. Further, the concentration for half-maximal inhibition (IC50) in [6] was 1.23 µM (active).

Consider `C[n+]1cc2c3c(ccc2c2ccc4cc5c(cc4c21)OCO5)OCO3`, for which the IC50 is 576 nM (active) in assay [8]; 265 nM (active) in assay [9]; 51.8 µM (inactive) in assay [10]; 316 nM (active) in [11]; 525 nM (active) in [12]; > 40 µM (inactive) in assay [13]. The IC50 in assay [14] is > 40 µM (inactive); at Fibrinogen beta chain [15] it was > 83.1 µM (inactive); at Fibrinogen beta chain [16], 24.2 µM (inactive); in [17], 350 nM (active); in assay [18], 379 nM (active). On Cytochrome P450 2D6, the AC50 was 31.6 µM (inconclusive) and 7.94 µM (inconclusive).

On to `O=C1C(c2ccccc2)=[N+]([O-])c2ccccc21`, for which the IC50 in assay [1] is 5.8 µM (active); in assay [2], 2.67 µM (active); on Nonstructural protein 1, 45.5 µM (active); in assay [4], 10.3 µM (not active). Also, the results for the half-maximal effective concentration (EC50) (in assay [19]; in the assay with H4; in assay [20]) were 12.7 µM (active), 20 µM (active) and 36.4 µM (active), respectively.
